Experimental data as given in US12729377B2, “RNAi agents and compositions for inhibiting expression of angiopoietin-like 3 (ANGPTL3), and methods of use” (Arrowhead Pharmaceuticals, Inc., priority 2017, dated 2026).
In the oligonucleotide strings, read from the 5' end, every base follows the letter of its sugar. An asterisk marks phosphorothioate; unmarked linkages are phosphodiester. Other units and linkages are bracketed, terminal groups are in braces. A string of capitals states the bases alone. {NAG37} = tridentate N-acetyl-galactosamine targeting ligand, structure (NAG37)s; [invAb] = inverted abasic unit; m = 2'-O-methyl; f = 2'-fluoro

Legend:
ANGPTL3 gene [1] = assay: Example 3: serum total cholesterol in mice; assay type: in vivo
Description: (§1) To assess the in vivo activity of ANGPTL3 RNAi agents that are designed to target positions 921 and 922 on the ANGPTL3 gene, six- to eight-week-old female C57bl/6 mice were used. Pre-dose serum samples were taken at day −1 after a four hour fast. At day 1, each mouse was given a single subcutaneous administration of 200 μl containing either 1 mg/kg (mpk) of an ANGPTL3 RNAi agent in D5W (dextrose in 5% water), or control (D5W) with no RNAi agent, according to the dosing groups recited in Table 12.
Each of the RNAi agents included a modified sequence and an N-acetyl-galactosamine-containing targeting ligand conjugated to the 5′ terminal end of the sense strand. (See Tables 3, 4, and 5 for modified sequences and targeting ligand structures). The injections were performed between the skin and muscle (i.e. subcutaneous injections) into the loose skin over the neck and shoulder area. Three (3) mice in each group were tested (n=3). […] Mice were fasted for four hours prior to each collection. ANGPTL3 protein levels in serum were measured by ELISA assay (R&D Systems), according to the manufacturer's recommendations. Triglycerides, high-density lipoprotein (HDL), and total cholesterol in serum were measured on a Cobas® Integra 400 (Roche Diagnostics), according to the manufacturer's recommendations.
(§2) The ANGPTL3 protein levels, triglyceride levels, HDL levels, and total cholesterol levels for each animal were normalized. For normalization, the level of ANGPTL3 protein, triglyceride, HDL, and total cholesterol, respectively, for each animal at a time point, was divided by the pre-treatment level of expression in that animal (in this case at day −1) to determine the ratio of expression “normalized to pre-treatment.” Expression at a specific time point was then normalized to the D5W control group by dividing the “normalized to pre-treatment” ratio for an individual animal by the mean “normalized to pretreatment” ratio of all mice in the D5W control group.

ANGPTL3 gene [2] = assay: Example 7: serum triglycerides in mice; assay type: in vivo, C57bl/6 mice; parameters: key: ratio: (level/pre-treatment day -1 level) ÷ mean of D5W control group
Description: (§3) To further assess the in vivo activity of additional ANGPTL3 RNAi agents that are designed to target position 304 on the ANGPTL3 gene, six- to eight-week-old female C57bl/6 mice were used. Pre-dose serum samples were taken at day −1 after a four hour fast. At day 1, each mouse was given a single subcutaneous administration of 200 μl containing 0.5 mg/kg (mpk) of an ANGPTL3 RNAi agent in D5W (dextrose in 5% water), or control (D5W) with no RNAi agent, according to the dosing groups recited in Table 31.
(§4) Each of the RNAi agents included a modified sequence and an N-acetyl-galactosamine-containing targeting ligand conjugated to the 5′ terminal end of the sense strand. (See Tables 3, 4, and 5 for modified sequences and targeting ligand structures). The injections were performed between the skin and muscle (i.e. subcutaneous injections) into the loose skin over the neck and shoulder area. Three (3) mice in each group were tested (n=3). Serum was collected on days 8, 15, 22, and 29. Mice were fasted for four hours prior to each collection. ANGPTL3 protein levels in serum were measured by ELISA assay (R&D Systems), according to the manufacturer's recommendations. Triglycerides, total cholesterol, high-density lipoprotein (HDL), and low-density lipoprotein (LDL) in serum were measured on a Cobas® Integra 400 (Roche Diagnostics), according to the manufacturer's recommendations.
(§5) The ANGPTL3 protein levels, triglyceride levels, total cholesterol levels, HDL levels, and LDL levels for each animal were normalized. For normalization, the level of ANGPTL3 protein, triglyceride, HDL, and total cholesterol, respectively, for each animal at a time point, was divided by the pre-treatment level of expression in that animal (in this case at day −1) to determine the ratio of expression “normalized to pre-treatment.” Expression at a specific time point was then normalized to the D5W control group by dividing the “normalized to pre-treatment” ratio for an individual animal by the mean “normalized to pretreatment” ratio of all mice in the D5W control group.

ANGPTL3 gene [3] = assay: Example 7: serum HDL in mice; assay type: in vivo; parameters: key: ratio: (level/pre-treatment day -1 level) ÷ mean of D5W control group; conditions: 0.5 mg/kg single SC injection day 1, female C57bl/6 mice, n=3, ratio to D5W control
Description: as §3, §4, §5

ANGPTL3 protein = assay: Example 7: serum ANGPTL3 protein by ELISA in mice; assay type: in vivo, C57bl/6 mice; parameters: key: ratio: (level/pre-treatment day -1 level) ÷ mean of D5W control group
Description: as §3, §4, §5

ANGPTL3 gene [4] = assay: Example 4: serum HDL in mice; assay type: in vivo, C57bl/6 mice
Description: as §1, with “target additional” for “target”, “positions” for “positions 921 and 922”, “(mpk) or 0.5 mg/kg (mpk)” for “(mpk)”, “17.” for “12.”
as §4, with “22, 29,” for “22,”, “day 43 (Groups 1-3, 9, and 11-13 only).” for “29.”, “Triglycerides,” for “Triglycerides, total cholesterol,”, “total cholesterol” for “low-density lipoprotein (LDL)”
as §2

ANGPTL3 gene [5] = assay: Example 7: serum LDL in mice; assay type: in vivo; parameters: key: ratio: (level/pre-treatment day -1 level) ÷ mean of D5W control group; conditions: 0.5 mg/kg single SC injection day 1, female C57bl/6 mice, n=3, ratio to D5W control
Description: as §3, §4, §5

[6] = Day 8, 1.0 mg/kg single subcutaneous dose on day 1, female C57bl/6 mice
[7] = Day 15, 1.0 mg/kg single subcutaneous dose on day 1, female C57bl/6 mice
[8] = Day 22, 1.0 mg/kg single subcutaneous dose on day 1, female C57bl/6 mice
[9] = Day 29, 1.0 mg/kg single subcutaneous dose on day 1, female C57bl/6 mice
[10] = Day 8, 0.5 mg/kg single SC injection on day 1, n=3
[11] = Day 15, 0.5 mg/kg single SC injection on day 1, n=3
[12] = Day 22, 0.5 mg/kg single SC injection on day 1, n=3
[13] = Day 29, 0.5 mg/kg single SC injection on day 1, n=3
[14] = Day 8, 1.0 mg/kg single SC injection on day 1, n=3
[15] = Day 15, 1.0 mg/kg single SC injection on day 1, n=3
[16] = Day 22, 1.0 mg/kg single SC injection on day 1, n=3
[17] = Day 29, 1.0 mg/kg single SC injection on day 1, n=3
[18] = Day 43, 1.0 mg/kg single SC injection on day 1, n=3

| Substance | Avg Total Chol (Average Total Cholestrol Normalized to Pre-Treatment and Control) (ANGPTL3 gene [1]; [6]) | Avg Total Chol (Average Total Cholestrol Normalized to Pre-Treatment and Control) (ANGPTL3 gene [1]; [7]) | Avg Total Chol (Average Total Cholestrol Normalized to Pre-Treatment and Control) (ANGPTL3 gene [1]; [8]) | Avg Total Chol (Average Total Cholestrol Normalized to Pre-Treatment and Control) (ANGPTL3 gene [1]; [9]) | Avg TG, normalized to pre-treatment and control (ANGPTL3 gene [2]; [10]) | Avg TG, normalized to pre-treatment and control (ANGPTL3 gene [2]; [11]) | Avg TG, normalized to pre-treatment and control (ANGPTL3 gene [2]; [12]) | Avg TG, normalized to pre-treatment and control (ANGPTL3 gene [2]; [13]) | Avg HDL, normalized to pre-treatment and control (ANGPTL3 gene [3]; Day 8) | Avg HDL, normalized to pre-treatment and control (ANGPTL3 gene [3]; Day 15) | Avg HDL, normalized to pre-treatment and control (ANGPTL3 gene [3]; Day 22) | Avg HDL, normalized to pre-treatment and control (ANGPTL3 gene [3]; Day 29) | Avg ANGPTL3, normalized to pre-treatment and control (ANGPTL3 protein; [10]) | Avg ANGPTL3, normalized to pre-treatment and control (ANGPTL3 protein; [11]) | Avg ANGPTL3, normalized to pre-treatment and control (ANGPTL3 protein; [12]) | Avg ANGPTL3, normalized to pre-treatment and control (ANGPTL3 protein; [13]) | Avg HDL, normalized to pre-treatment and control (ANGPTL3 gene [4]; [14]) | Avg HDL, normalized to pre-treatment and control (ANGPTL3 gene [4]; [15]) | Avg HDL, normalized to pre-treatment and control (ANGPTL3 gene [4]; [16]) | Avg HDL, normalized to pre-treatment and control (ANGPTL3 gene [4]; [17]) | other results |
| --- | --- | --- | --- | --- | --- | --- | --- | --- | --- | --- | --- | --- | --- | --- | --- | --- | --- | --- | --- | --- | --- |
| AD05307: RNAi agent duplex: antisense AM07001-AS, sense AM07000-SS (chain 1 mU*fU*mU*fGmAfAmUfUmAfAmUfGmUfCmCfAmUfGmGmG*mC; chain 2 {NAG37}*[invAb]*mGmCmCmCmAmUmGmGfAfCfAmUmUmAmAmUmUmCmAmAmA*[invAb]) | 0.940 | 0.840 | 0.948 | 1.088 |  |  |  |  |  |  |  |  |  |  |  |  |  |  |  |  |  |
| AD05308: RNAi agent duplex: antisense AM07003-AS, sense AM07002-SS (chain 1 mU*fG*mU*fUmGfAmAfUmUfAmAfUmGfUmCfCmAfUmGfG*mA; chain 2 {NAG37}*[invAb]*mUmCmCmAmUmGmGmAfCfAfUmUmAmAmUmUmCmAmAmCmA*[invAb]) | 0.872 | 0.768 | 1.048 | 0.978 | 0.836 | 0.755 | 0.839 | 0.705 | 0.750 | 0.791 | 0.846 | 0.905 | 0.447 | 0.388 | 0.440 | 0.523 | 0.904 | 0.801 | 0.728 | 0.824 | Avg HDL, normalized to pre-treatment and control (ANGPTL3 gene [4]; [10]): 1.007; Avg HDL, normalized to pre-treatment and control (ANGPTL3 gene [4]; [11]): 0.770; Avg HDL, normalized to pre-treatment and control (ANGPTL3 gene [4]; [12]): 0.921; Avg HDL, normalized to pre-treatment and control (ANGPTL3 gene [4]; [13]): 0.934; Avg HDL, normalized to pre-treatment and control (ANGPTL3 gene [4]; Day 43, 0.5 mg/kg single SC injection on day 1, n=3): 1.101; Avg HDL, normalized to pre-treatment and control (ANGPTL3 gene [4]; [18]): 1.096; Avg LDL, normalized to pre-treatment and control (ANGPTL3 gene [5]; Day 8): 0.710; Avg LDL, normalized to pre-treatment and control (ANGPTL3 gene [5]; Day 15): 0.801; Avg LDL, normalized to pre-treatment and control (ANGPTL3 gene [5]; Day 22): 0.933; Avg LDL, normalized to pre-treatment and control (ANGPTL3 gene [5]; Day 29): 1.047 |
| AD05488: RNAi agent duplex: antisense AM07235-AS, sense AM07234-SS (antisense mU*fA*mC*fUmGfAmUfCmAfAmAfUmAfUmGfUmUfGmAfG*mC; sense {NAG37}*[invAb]*mGmCmUmCmAmAmCmAfUfAfUmUmUmGmAmUmCmAmGmUmA*[invAb]) |  |  |  |  | 0.856 | 0.947 | 0.922 | 0.877 | 0.783 | 0.793 | 0.780 | 0.886 | 0.339 | 0.379 | 0.346 | 0.469 | 0.839 | 0.644 | 0.727 | 0.771 | Avg HDL, normalized to pre-treatment and control (ANGPTL3 gene [4]; [18]): 0.833; Avg LDL, normalized to pre-treatment and control (ANGPTL3 gene [5]; Day 8): 0.953; Avg LDL, normalized to pre-treatment and control (ANGPTL3 gene [5]; Day 15): 0.825; Avg LDL, normalized to pre-treatment and control (ANGPTL3 gene [5]; Day 22): 0.860; Avg LDL, normalized to pre-treatment and control (ANGPTL3 gene [5]; Day 29): 1.055 |
